The record followed here is patent US9708336B2, “Metallo-beta-lactamase inhibitors” (priority 2014, dated 2017).

One experiment concerns the target VIM-1 (Pseudomonas aeruginosa (strain ATCC 15692 / DSM 22644 / CIP 104116 / JCM 14847 / LMG 12228 / 1C / PRS 101 / PAO1), UniProt A0A0F7KYQ8). Briefly: Enzyme activity: determination of IC50, fluorescence assay with CCF2-FA substrate (VIM-1). It is filed as biochemical.
The subject of experiment [1] is Escherichia coli expressing NDM-1 (CLB30016). Briefly: Antibiotic potentiation activity: synergistic concentration (MITC95) with imipenem, OD600 growth. The following applies: CLB30016 (NDM-1), 95% inhibition of bacterial growth. It is filed as cell-based. A digest of the protocol: (§1)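 Bacteria were grown overnight on agar at 35 °C, diluted 1:100 from saline into 1.1× CAMHB, then given compound with or without imipenem (4 μg/ml in assay, optionally 1 μg/ml). Endpoint: absorbance at 22–24 h.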

Experiment [2] has as its system Serratia marcescens expressing IMP-1 (CL5741). Described as above. It is filed as cell-based. To be noted: CL5741 (IMP-1), 95% inhibition of bacterial growth. A digest of the protocol:
as §1

Experiment [3] has as its system Klebsiella pneumoniae expressing VIM-1 (IHMA599644). The experiment is described as above. It is filed as cell-based. To be noted: IHMA599644 (VIM-1), 95% inhibition of bacterial growth. The gist of the method:
as §1

For a further experiment, the target named is NDM-1 (Klebsiella pneumoniae, UniProt C7C422). The experiment in a line: biochemical. In kind it is biochemical. To be noted: fluorescence assay with CCF2-FA substrate; read-out: NDM-1 IC50.
Chain of NDM-1 (C7C422 whole entry, looked up, species assumed): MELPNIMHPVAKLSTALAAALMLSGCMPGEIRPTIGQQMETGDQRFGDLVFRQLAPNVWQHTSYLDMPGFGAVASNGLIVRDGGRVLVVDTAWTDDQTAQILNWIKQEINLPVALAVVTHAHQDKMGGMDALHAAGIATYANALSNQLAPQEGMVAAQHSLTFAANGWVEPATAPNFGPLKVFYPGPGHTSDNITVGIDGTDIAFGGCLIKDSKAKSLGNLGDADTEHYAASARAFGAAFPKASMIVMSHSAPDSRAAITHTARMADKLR
The next experiment deals with IMP-1 (Serratia marcescens, UniProt P52699). Briefly: biochemical. It is filed as biochemical. The following applies: fluorescence assay with CCF2-FA substrate; read-out: IMP-1 IC50.
Chain of IMP-1 (P52699 whole entry, looked up): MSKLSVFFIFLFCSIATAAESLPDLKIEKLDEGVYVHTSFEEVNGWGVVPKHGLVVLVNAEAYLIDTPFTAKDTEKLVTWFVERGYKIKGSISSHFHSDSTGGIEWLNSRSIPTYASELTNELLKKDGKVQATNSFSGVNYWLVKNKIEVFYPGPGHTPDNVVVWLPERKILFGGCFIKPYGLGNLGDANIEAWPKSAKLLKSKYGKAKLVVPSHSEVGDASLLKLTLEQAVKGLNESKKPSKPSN
[4] abbreviates: fluorescence assay with CCF2-FA substrate, read-out: VIM-1 IC50.
The mark [5] stands for this setting: VIM-1 IC50, fluorescence assay with CCF2-FA substrate.

Read-outs that look alike come from different tables or passages of the source.

Turning to `NCCC1CCC(N2CC(c3ccc(-c4ccc(C(F)(F)F)c(S(N)(=O)=O)c4-c4nnn[nH]4)cc3)C2)CC1` (stereo not drawn) [Example 814, 4′-{1-[4-(2-aminoethyl)cyclohexyl]azetidin-3-yl}-2-(1H-tetrazol-5-yl)-4-(trifluoromethyl)biphenyl-3-sulfonamide], the 50% inhibitory concentration (IC50) amounted to 22.5 nM at VIM-1 (setting [4]), 8.08 nM on NDM-1 and 12.5 nM on IMP-1. Further, the “Escherichia coli MITC95” value in experiment [1] is 6.25 µM. The “Serratia marcescens MITC95” value in experiment [2] was determined as 6.25 µM. The “Klebsiella pneumoniae MITC95” value in experiment [3] is 100 µM.

Turning to `CNC1CC(N2CC(c3ccc(-c4ccc(C(F)(F)F)c(S(N)(=O)=O)c4-c4nnn[nH]4)cc3)C2)C1` (stereo not drawn) [Example 815, 4′-{1-[3-(methylamino)cyclobutyl]azetidin-3-yl}-2-(1H-tetrazol-5-yl)-4-(trifluoromethyl)biphenyl-3-sulfonamide], the results for the IC50 at VIM-1 (setting [4]), at NDM-1 and on IMP-1 were 18 nM, 4.84 nM and 6.01 nM, respectively. In addition, the “Escherichia coli MITC95” value in experiment [1] stood at 1.563 µM. Moreover, in experiment [2], the “Serratia marcescens MITC95” value was determined as 3.125 µM. The “Klebsiella pneumoniae MITC95” value in experiment [3] was found to be 100 µM.

For `NCCCN1CC(c2ccc(-c3ccc(C(F)(F)F)c(S(N)(=O)=O)c3-c3nnn[nH]3)cc2)C1` [Example 816, 4′-[1-(3-aminopropyl)azetidin-3-yl]-2-(1H-tetrazol-5-yl)-4-(trifluoromethyl)biphenyl-3-sulfonamide], the values for the IC50 on VIM-1 (setting [4]), on NDM-1 and on IMP-1 were 13.5 nM, 6.62 nM and 16.3 nM, respectively. Also, the “Escherichia coli MITC95” value in experiment [1] stood at 1.563 µM. In experiment [2], the “Serratia marcescens MITC95” value worked out at 6.25 µM. For the same molecule, in experiment [3], the “Klebsiella pneumoniae MITC95” value came to 12.5 µM.

Regarding `NCCCCN1CC(c2ccc(-c3ccc(C(F)(F)F)c(S(N)(=O)=O)c3-c3nnn[nH]3)cc2)C1` [Example 817, 4′-[1-(4-aminobutyl)azetidin-3-yl]-2-(1H-tetrazol-5-yl)-4-(trifluoromethyl)biphenyl-3-sulfonamide], the IC50 stood at 9.5 nM on VIM-1 (setting [4]), 4.46 nM at NDM-1 and 15 nM on IMP-1. Further, the “Escherichia coli MITC95” value in experiment [1] was found to be 1.563 µM. Besides, in experiment [2], the “Serratia marcescens MITC95” value came to 6.25 µM. Also, the “Klebsiella pneumoniae MITC95” value in experiment [3] was determined as 12.5 µM.

On to `NS(=O)(=O)c1c(C(F)(F)F)ccc(-c2ccc(C3CN(CC4CCNC4)C3)cc2)c1-c1nnn[nH]1` (stereo not drawn) [Example 818, 4′-[1-(pyrrolidin-3-ylmethyl)azetidin-3-yl]-2-(1H-tetrazol-5-yl)-4-(trifluoromethyl)biphenyl-3-sulfonamide], for which the half-inhibitory concentration (IC50) was 17.2 nM at VIM-1 (setting [4]), 4.38 nM on NDM-1 and 8.6 nM at IMP-1. Also, the “Escherichia coli MITC95” value in experiment [1] turned out to be 1.563 µM. Further, the “Serratia marcescens MITC95” value in experiment [2] came out at 3.125 µM. The “Klebsiella pneumoniae MITC95” value in experiment [3] came out at 12.5 µM.

For `NS(=O)(=O)c1c(C(F)(F)F)ccc([C@H]2CC[C@@H](N)CC2)c1-c1nnn[nH]1` [Example 819, 3-((1s,4s)-4-aminocyclohexyl)-2-(1H-tetrazol-5-yl)-6-(trifluoromethyl)benzenesulfonamide], the 50% inhibitory concentration (IC50) was found to be 27.4 nM at VIM-1 (setting [4]), 14.3 nM at NDM-1 and 97.1 nM on IMP-1. Further, the “Escherichia coli MITC95” value in experiment [1] was determined as 0.8464 µM. In addition, the “Serratia marcescens MITC95” value in experiment [2] was determined as 1.823 µM. Moreover, in experiment [3], the “Klebsiella pneumoniae MITC95” value was 3.385 µM.

Consider `NS(=O)(=O)c1c(C(F)(F)F)ccc([C@H]2CC[C@H](N)CC2)c1-c1nnn[nH]1` [Example 820, 3-((1r,4r)-4-aminocyclohexyl)-2-(1H-tetrazol-5-yl)-6-(trifluoromethyl)benzenesulfonamide], for which the results for the IC50 on VIM-1 (setting [4]), on NDM-1 and at IMP-1 were 0.659 nM, 13.5 nM and 39.4 nM, respectively. In addition, in experiment [1], the “Escherichia coli MITC95” value turned out to be 0.3906 µM. Also, the “Serratia marcescens MITC95” value in experiment [2] turned out to be 0.7813 µM. Moreover, the “Klebsiella pneumoniae MITC95” value in experiment [3] was 0.7813 µM.

Take `NCC1CCN(c2ccc(C(F)(F)F)c(S(N)(=O)=O)c2-c2nnn[nH]2)CC1` [Example 821, 3-[4-(aminomethyl)-1-piperidyl]-2-(1H-tetrazol-5-yl)-6-(trifluoromethyl)benzenesulfonamide]: the IC50 at VIM-1 (setting [5]) came out at 0.496 nM; at NDM-1, 18.1 nM; at IMP-1, 55.1 nM. In addition, the “Escherichia coli MITC95” value in experiment [1] was determined as 12.5 µM. In experiment [2], the “Serratia marcescens MITC95” value was 6.25 µM. For the same molecule, in experiment [3], the “Klebsiella pneumoniae MITC95” value amounted to 12.5 µM.

As for `N=C(N)N1CCC2(CC1)CCN(c1ccc(C(F)(F)F)c(S(N)(=O)=O)c1-c1nnn[nH]1)CC2` [Example 822, 9-[3-sulfamoyl-2-(1H-tetrazol-5-yl)-4-(trifluoromethyl)phenyl]-3,9-diazaspiro[5.5]undecane-3-carboxamidine], the IC50 on VIM-1 (setting [5]) came out at 0.195 nM; at NDM-1 it was 1.44 nM; on IMP-1 it was 2.25 nM. Moreover, the “Escherichia coli MITC95” value in experiment [1] was 0.6406 µM. For the same molecule, the “Serratia marcescens MITC95” value in experiment [2] amounted to 0.0938 µM. For the same molecule, the “Klebsiella pneumoniae MITC95” value in experiment [3] turned out to be 1.086 µM.

Consider `N=C(N)N[C@H]1CC[C@H](c2ccc(C(F)(F)F)c(S(N)(=O)=O)c2-c2nnn[nH]2)CC1` [Example 823, 1-[4-[3-sulfamoyl-2-(1H-tetrazol-5-yl)-4-(trifluoromethyl)phenyl]cyclohexyl] guanidine], for which the results for the IC50 at VIM-1 (setting [4]), at NDM-1 and at IMP-1 were 0.666 nM, 17.5 nM and 25.4 nM, respectively. Further, the “Escherichia coli MITC95” value in experiment [1] is 1.172 µM. In experiment [2], the “Serratia marcescens MITC95” value amounted to 0.3906 µM. In addition, the “Klebsiella pneumoniae MITC95” value in experiment [3] is 1.172 µM.

In the case of `N=C(N)NC1CCN(c2ccc(C(F)(F)F)c(S(N)(=O)=O)c2-c2nnn[nH]2)CC1` [Example 824, 1-[1-[3-sulfamoyl-2-(1H-tetrazol-5-yl)-4-(trifluoromethyl)phenyl]-4-piperidyl]guanidine], the IC50 on VIM-1 (setting [4]) came out at 0.702 nM; on NDM-1, 53.1 nM; at IMP-1, 59.2 nM. The “Escherichia coli MITC95” value in experiment [1] worked out at 1.563 µM. Moreover, the “Serratia marcescens MITC95” value in experiment [2] is 0.7813 µM. For the same molecule, in experiment [3], the “Klebsiella pneumoniae MITC95” value was found to be 0.7813 µM.

Regarding `N=C(N)N1CCC([C@H]2CC[C@H](c3ccc(C(F)(F)F)c(S(N)(=O)=O)c3-c3nnn[nH]3)CC2)CC1` [Example 825, 4-[4-[3-sulfamoyl-2-(1H-tetrazol-5-yl)-4-(trifluoromethyl)phenyl]cyclohexyl] piperidine-1-carboxamidine], the values for the half-inhibitory concentration (IC50) on VIM-1 (setting [4]), on NDM-1 and on IMP-1 were 0.0805 nM, 0.157 nM and 0.499 nM, respectively. Moreover, in experiment [1], the “Escherichia coli MITC95” value amounted to 0.7813 µM. The “Serratia marcescens MITC95” value in experiment [2] came out at 1.563 µM. Besides, the “Klebsiella pneumoniae MITC95” value in experiment [3] worked out at 3.125 µM.

For `N=C(N)N1CCC2(CCC(c3ccc(C(F)(F)F)c(S(N)(=O)=O)c3-c3nnn[nH]3)CC2)CC1` [Example 826, 9-[3-sulfamoyl-2-(1H-tetrazol-5-yl)-4-(trifluoromethyl)phenyl]-3-azaspiro[5.5]undecane-3-carboxamidine], the IC50 turned out to be 1.36 nM against VIM-1 (setting [5]), 0.491 nM on NDM-1 and 1.45 nM on IMP-1. The “Escherichia coli MITC95” value in experiment [1] was found to be 1.563 µM. Also, the “Serratia marcescens MITC95” value in experiment [2] is 3.125 µM. In addition, the “Klebsiella pneumoniae MITC95” value in experiment [3] came out at 25 µM.

Turning to `NCCNC1CCC(c2ccc(C(F)(F)F)c(S(N)(=O)=O)c2-c2nnn[nH]2)CC1` (stereo not drawn) [Example 827, 3-[4-(trans-2-aminoethylamino)cyclohexyl]-2-(1H-tetrazol-5-yl)-6-(trifluoromethyl)benzenesulfonamide], the IC50 on VIM-1 (setting [5]) is 2.59 nM; at NDM-1, 5.72 nM; on IMP-1, 22.6 nM. Moreover, in experiment [1], the “Escherichia coli MITC95” value turned out to be 0.3906 µM. In addition, the “Serratia marcescens MITC95” value in experiment [2] is 0.3906 µM. For the same molecule, the “Klebsiella pneumoniae MITC95” value in experiment [3] came to 1.172 µM.

With `NCCN[C@H]1CC[C@@H](c2ccc(C(F)(F)F)c(S(N)(=O)=O)c2-c2nnn[nH]2)CC1` [Example 828, 3-((1s,4s)-4-((2-aminoethyl)amino)cyclohexyl)-2-(1H-tetrazol-5-yl)-6-(trifluoromethyl)benzenesulfonamide], the IC50 was determined as 73.3 nM on VIM-1 (setting [5]), 8.29 nM on NDM-1 and 72.9 nM on IMP-1. In experiment [1], the “Escherichia coli MITC95” value stood at 0.7813 µM. The “Serratia marcescens MITC95” value in experiment [2] came out at 1.563 µM. For the same molecule, in experiment [3], the “Klebsiella pneumoniae MITC95” value is 6.25 µM.

For `NCCNC1CCN(c2ccc(C(F)(F)F)c(S(N)(=O)=O)c2-c2nnn[nH]2)CC1` [Example 829, 3-[4-(2-aminoethylamino)-1-piperidyl]-2-(1H-tetrazol-5-yl)-6-(trifluoromethyl)benzenesulfonamide], the IC50 came to 1.08 nM on VIM-1 (setting [4]), 59.8 nM on NDM-1 and 93.3 nM on IMP-1. Moreover, the “Escherichia coli MITC95” value in experiment [1] was found to be 0.7813 µM. The “Serratia marcescens MITC95” value in experiment [2] is 0.9766 µM. In experiment [3], the “Klebsiella pneumoniae MITC95” value came out at 0.7813 µM.
